These results are taken from a compilation of properties of binary mixtures (doi:10.1016/j.molliq.2014.05.027).

The nature of this data set: xn = mol fraction of the nth substance listed. To be noted: 101 kPa.

Consider `O` + CC(=O)[O-].Cn1cc[nH+]c1, for which the viscosity is recorded as 1.002 mPa·s (293.15 K, x1 = 1); 0.89 mPa·s (298.15 K, x1 = 1); 0.797 mPa·s (303.15 K, x1 = 1); 0.651 mPa·s (313.15 K, x1 = 1).
`CC(=O)[O-].Cn1cc[nH+]c1` + O: the viscosity by setting is: (293.15 K, x2 = 0) 8.2 mPa·s; (298.15 K, x2 = 0) 6.93 mPa·s; (303.15 K, x2 = 0.7993) 5.76 mPa·s; (308.15 K, x2 = 0) 5.07 mPa·s. The electrical conductivity by setting is: (298.15 K, x1 = 0.002) 0.522 S/m; (298.15 K, x1 = 0.0071) 1.51 S/m; (298.15 K, x1 = 0.01) 1.92 S/m; (298.15 K, x2 = 0) 0.371 S/m; (298.15 K, x2 = 0.1092) 0.433 S/m; (298.15 K, x2 = 0.2563) 0.553 S/m. The electrical conductivity (298.15 K, x2 = 0.5026) is 0.858 S/m; the electrical conductivity (298.15 K, x2 = 0.6515) was found to be 1.21 S/m; the electrical conductivity (298.15 K, x2 = 0.8065) came to 2 S/m; the electrical conductivity (298.15 K, x2 = 0.8514) amounted to 2.52 S/m; the electrical conductivity (298.15 K, x2 = 0.9001) came out at 3.27 S/m; the electrical conductivity (298.15 K, x2 = 0.9252) amounted to 3.73 S/m.

In general, viscosity refers to the internal friction of a fluid under shear. Higher therefore signals a thick fluid.
